From ChEMBL document CHEMBL1201862, “PubChem BioAssay data set” (2004)
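Results reflect a 48-hour exposure of cells in 96-well plates to compound at five concentrations. GI50 = concentration required for 50% inhibition of growth.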 Activity calls are given as the source filed them. Rule as the data show it: active = GI50 up to about 1.1 µM and inactive = higher.

Columns and labels:
Assay in all cases: NCI-60 cell line screen, 48 h
KM-20L2 = test system: KM-20L2
RXF 631 = test system: RXF 631
XF498 = test system: XF498
HOP-18 = test system: HOP-18
M19-MEL = test system: M19-MEL
DMS-114 = test system: DMS-114
SNB-78 = test system: SNB-78
DLD-1 = test system: DLD-1
DMS-273 = test system: DMS-273

Measured: GI50

Cc1cccc(C)c1NC(=O)CCCC(=O)C1/C(=N/NC(=O)CC#N)CCC/C1=N\NC(=O)CC#N (centres undefined)
inactive: KM-20L2 > 100 µM | RXF 631 > 100 µM | XF498 > 100 µM | HOP-18 > 100 µM | M19-MEL > 100 µM | DMS-114 > 100 µM | SNB-78 > 100 µM | DLD-1 > 100 µM | DMS-273 > 100 µM
